# Data published in patent US12611409B2, “Combination therapy using a chemokine receptor 2 (CCR2) antagonist and a PD-1/PD-L1 inhibitor” (CHEMOCENTRYX, INC., priority 2017, dated 2026).
# What was measured:
# [1] = Compound 1 plasma levels in the CT26 study; type: in vivo, Balb/c mice; settings: oral gavage 30 mg/kg daily; day 3 and day 23 of dosing
# Method: Six days after subcutaneous CT26 implantation into the flanks of 9 wk female Balb/c mice (2.5×10^5/mouse), the recipients were randomized based on tumor size and treatment was begun. Mice received anti-PD-1 (RPM1-14 from BioXcell, Inc., catalog number BE0146) by IP injection on days 7, 10, 17 and 21 (200 μg/mouse), and received CCR2 antagonist Compound 1 (30 or 60 mg/kg) or vehicle by oral gavage every 24 hours starting day 7.
# [2] = system: M-MDSCs and CD8 T cells in the CT26 tumor microenvironment; assay: Quantitation of tumor-infiltrating cells per gram of CT26 tumor (flow cytometry); type: in vivo, Balb/c mice
# Excerpt: CT26 is a Balb/c-derived colon adenocarcinoma that generates tumors when injected subcutaneously into Balb/c mice. Single cells were isolated from established subcutaneous CT26 tumors (28 days after injection) by mincing, digesting the tissue briefly with collagenase-D, and passing the slurry through 100 μm sieves. Cells were stained for flow cytometry and gated on live CD45^+ tumor-infiltrating leukocytes (FIG. 2).
# Tumor-infiltrating cytotoxic T cells (Thy1^+/CD8^+) were quantitated by weighing the tumors before dissociation, allowing cells-per-gram of tumor to be calculated.
# M-MDSCs were quantitated by weighing the tumors before dissociation, allowing cells-per-gram of tumor to be calculated.
# The ratio in control treated mice (veh+iso) was 1:1, meaning one M-MDSC for every CD8 T cell. […] Treatment of Compound 1 alone yielded 10 CD8 T cells for every M-MDSC cell. Treatment with α-PD-1 […].
smiles,measurement,setting,value
C[C@H]1CN([C@@H]2CC[C@@](C(=O)N3COc4c(cc(C(F)(F)F)cc4C(F)(F)F)C3)(C3CC3)OC2)CC[C@@H]1c1cccc(C(=O)O)c1 [Compound 1],trough plasma levels,[1],at or above those required for full receptor coverage
same,M-MDSCs in the CT26 tumor microenvironment (cells per gram of tumor),[2]; by day 24,reduces the population of M-MDSCs
same,ratio of CD8 T cells to M-MDSCs,"[2]; calculated from cell counts of FIG. 10 and FIG. 11, control (veh+iso) 1:1",10 CD8 T cells for every M-MDSC
